# Data from article PMC7688903 (Frontiers in Microbiology, 2020).
# Where a SMILES comes first, the peptide text is derived from it. Where no end group is shown, it is not given here. [ ]: non-standard residue; d: D form. hArg = N=C(N)NCCCC[C@H](N)C(=O)O; 2Thi = N[C@@H](Cc1cccs1)C(=O)O
# Legend:
# human erythrocytes = assay: Hemolytic activity assay; assay type: cell-based; conditions: human RBC in PB, 37°C, 1 h, OD420, total lysis control 0.1% SDS, three technical replicates
# Description: Whole blood was obtained from a healthy volunteer. The red blood cells (RBC) were then centrifuged (800 × g, 10 min), washed twice with PB, resuspended in 1 mL of PB, and incubated with various concentrations of the peptides (32–128 μM) at 37°C for 1 h. As a positive control, total lysis of the RBC was accomplished by incubation with 0.1% SDS. For each condition, three technical replicates were performed. After incubation, the RBC were centrifuged at 800 × g for 10 min and the amount of hemoglobin released into the supernatant was determined by measuring the optical density OD420 using a SpectraMax i3x microplate reader (Molecular Devices) ([Zaet et al., 2017]).
# P. aeruginosa ATCC 27853 = assay type: cell-based, Pseudomonas aeruginosa; conditions: ATCC 27853, 20 h
# Description: (§1) The antimicrobial activities of the peptides were tested against E. coli ATCC 25922, P. aeruginosa ATCC 27853, carbapenem-resistant P. aeruginosa SIPI-012, A. baumannii ATCC 19606, carbapenem-resistant A. baumannii SIPI-025, S. aureus ATCC 25923, and C. albicans ATCC 10231. The minimum inhibitory concentration (MIC) values were determined using the microdilution method according to Clinical and Laboratory Standards Institute guidelines ([CLSI, 2008], [2012]). The peptides were dissolved in 10 mM PB to a concentration of 1280 μg/mL as stock solutions.
# (§2) For inoculum preparation of bacteria, morphologically similar colonies selected from fresh MH agar plates were transferred using a loop into approximately 10 mL of MH broth in a capped test tube and vortexed. The suspension was adjusted with MH broth to achieve a turbidity equivalent to a 0.5 McFarland standard (BaSO4 solution prepared spectrophotometrically). A working suspension was prepared by making a 1:15 dilution followed by a 1:20 dilution of the stock suspension with MH broth medium to obtain approximately 5 × 10^5 CFU/mL. For inoculum preparation of yeast, five fresh colonies of approximately 1 mm diameter were picked from 24-hour-old cultures of C. albicans and suspended in 5 mL of sterile 0.85% saline. The resulting suspension was vortexed and the cell density was adjusted by adding sufficient sterile saline to achieve a turbidity equivalent to a 0.5 McFarland standard. A working suspension was prepared by making a 1:100 dilution followed by a 1:20 dilution of the stock suspension with RPMI 1640 broth medium to obtain 0.5 × 10^3 to 2.5 × 10^3 CFU/mL. Intermediate twofold dilutions of the peptides were prepared in MH broth and RPMI 1640 medium, and 90 μL aliquots were added to each well in addition to 10 μL of the inoculum prepared above.
# (§3) Each plate included a growth control well and a sterility (uninoculated) control well. Colistin, vancomycin hydrochloride, and amphotericin B were used as positive controls for gram-negative bacteria, gram-positive bacteria, and fungi, respectively. The bacterial and fungal plates were incubated at 37°C for 20 h and 35°C for 48 h, respectively, both under ambient atmosphere. The inhibition of microbial growth was assessed visually. The MICs were determined from independent triplicate assays.
# [1] = test system: carbapenem-resistant P. aeruginosa (CRPA) SIPI-012; assay type: cell-based, Pseudomonas aeruginosa; conditions: carbapenem-resistant (CRPA) SIPI-012, 20 h
# Description: as §1, §2, §3
# RAW 264.7 cells = assay: Cell viability assay (MTT); assay type: cell-based, mouse; conditions: 1–128 μM peptide in DMEM with 4% FBS, 42 h, 595 nm, triplicate
# Description: The peptides were dissolved in ddH2O to a concentration of 256 μM. RAW 264.7 cells were cultured in 100 μL of DMEM containing 10% FBS and seeded at a density of 1 × 10^4 cells in a 96-well culture plate. The plate was incubated at 37°C under 5% CO2 atmosphere overnight. After attaining 80% confluency, the cells were treated with various concentrations of the peptides (1–128 μM) dissolved in DMEM containing 4% FBS for 42 h. Cytotoxicity was determined using the MTT tetrazolium reduction assay and quantified spectrophotometrically at 595 nm using a SpectraMax i3x microplate reader. The cell viability was calculated with respect to control samples treated only with DMEM containing 4% FBS ([Khara et al., 2016]). Each test was done in triplicate and the concentration required for 50% inhibition of viability (IC50) was determined.
# human plasma proteases = assay: in vitro
# Description: The peptides were mixed with plasma from healthy volunteers to a final concentration of 0.1 mg/mL and incubated at 37°C. Aliquots (20 or 40 μL) were removed after 0, 2, 4, 6, 8, 12, 24, and 36 h, mixed with 0.05% TFA to a final concentration of 0.01 mg/mL, and incubated on ice for 10 min. After centrifugation (12,000 × g, 5 min), the supernatant was stored at −20°C. The samples were analyzed as described in section “Hydrophobicity” and quantified as described in section “Stability Toward Tryptic Degradation.” All stability tests were performed at least in triplicate. The identities of the metabolites after 12 h of degradation by plasma proteases were determined by LC-MS on a Waters Acquity UPLC-QDa system.
# C. albicans ATCC 10231 = assay: microbe, parasite or virus in culture; assay type: cell-based, Candida albicans; conditions: ATCC 10231, 48 h
# Description: as §1, §2, §3
# [2] = test system: carbapenem-resistant A. baumannii (CRAB) SIPI-025; assay type: cell-based, Acinetobacter baumannii; conditions: carbapenem-resistant (CRAB) SIPI-025, 20 h
# Description: as §1, §2, §3
# A. baumannii ATCC 19606 = assay type: cell-based, Acinetobacter baumannii; conditions: ATCC 19606, 20 h
# Description: as §1, §2, §3
# [3] = test system: proteases secreted by S. aureus ATCC 25923; assay: in vitro; conditions: for remaining at 24 h, 0.5 mg/mL: Staphylococcus aureus, S. aureus ATCC 25923 culture supernatant, pH 8; for Percent of remained peptide amount after incubation (%): S. aureus ATCC 25923 culture supernatant (MH broth), pH 8.0, 0.22 μm filtered, peptide 0.5 mg/mL, 37°C, 24 h, RP-HPLC
# Description: The stabilities of the peptides toward proteases secreted by E. coli ATCC 25922, P. aeruginosa ATCC 27853, A. baumannii ATCC 19606, S. aureus ATCC 25923, and C. albicans ATCC 10231 were also examined. Microbial supernatants were prepared by resuspending single colonies of each strain in 20 mL of an appropriate culture medium followed by incubation at 37°C overnight. MH broth and 2% tryptone/2% dextrose were used as the culture media for bacteria and yeast, respectively. Each culture was then centrifuged at 12,000 × g for 10 min and the supernatant was adjusted to pH 8.0 with HCl or NaOH and then filtered through a 0.22 μm sterile filter membrane ([Zaet et al., 2017]). The peptides were then dissolved in the filtered supernatants to a concentration of 0.5 mg/mL, and the peptide-free supernatants were used as negative controls. The samples were incubated at 37°C for 24 h in a water bath and then analyzed by RP-HPLC as described above.
# S. aureus ATCC 25923 = assay: microbe, parasite or virus in culture; assay type: cell-based, Staphylococcus aureus; conditions: ATCC 25923, 20 h
# Description: as §1, §2, §3
# E. coli ATCC 25922 = assay type: cell-based, Escherichia coli; conditions: ATCC 25922, 20 h
# Description: as §1, §2, §3
Compound,Hemolysis rate (%) (human erythrocytes; 64 μM),Hemolysis rate (%) (human erythrocytes; 128 μM),MIC (P. aeruginosa ATCC 27853) [µg/mL],MIC [1] [µg/mL],IC50 (RAW 264.7 cells) [µM],"metabolised at 2 h, 0.1 mg/mL (human plasma proteases) [%]","metabolised at 4 h, 0.1 mg/mL (human plasma proteases) [%]",MIC (C. albicans ATCC 10231) [µg/mL],MIC [2] [µg/mL],MIC (A. baumannii ATCC 19606) [µg/mL],"remaining at 24 h, 0.5 mg/mL [3] [%]",MIC (S. aureus ATCC 25923) [µg/mL],MIC (E. coli ATCC 25922) [µg/mL],Percent of remained peptide amount after incubation (%) [3] [%]
CC(C)C[C@H](NC(=O)[C@H](CCCCN)NC(=O)[C@H](CCCCN)NC(=O)[C@H](Cc1ccccc1)NC(=O)[C@H](CC(C)C)NC(=O)[C@H](CCCNC(=N)N)NC(=O)[C@@H](N)CCCCN)C(=O)N[C@@H](CC(C)C)C(=O)N[C@@H](CCCCN)C(=O)N[C@@H](Cc1ccc(O)cc1)C(=O)N[C@@H](CC(C)C)C(=O)N[C@@H](CCCNC(=N)N)C(=O)N[C@H](CCCCN)C(=O)N[C@@H](Cc1ccccc1)C(N)=O [DP03] (H-KRLFKKLLKYLR[dK]F-NH2),41.96 ± 4.14,51.55 ± 3.89,1,8,45 ± 5.96,> 40,> 50,4,2,2,73.5 ± 4.83,1,1,–
CC(C)C[C@H](NC(=O)[C@H](Cc1ccc(O)cc1)NC(=O)[C@H](CCCCN)NC(=O)[C@H](CC(C)C)NC(=O)[C@H](CC(C)C)NC(=O)[C@@H](CCCCN)NC(=O)[C@@H](CCCCN)NC(=O)[C@H](Cc1ccccc1)NC(=O)[C@H](CC(C)C)NC(=O)[C@H](CCCNC(=N)N)NC(=O)[C@@H](N)CCCCN)C(=O)N[C@@H](CCCNC(=N)N)C(=O)N[C@H](CCCCN)C(=O)N[C@@H](Cc1ccccc1)C(N)=O [DP04] (H-KRLF[dK][dK]LLKYLR[dK]F-NH2),38.84 ± 1.61,58.26 ± 1.84,1,4,34.7 ± 3.69,> 40,> 50,4,1,2,63.7 ± 8.1,0.5,1,–
CC(C)C[C@H](NC(=O)[C@H](Cc1ccc(O)cc1)NC(=O)[C@H](CCCCN)NC(=O)[C@H](CC(C)C)NC(=O)[C@H](CC(C)C)NC(=O)[C@H](CCCCN)NC(=O)[C@H](CCCCN)NC(=O)[C@H](Cc1cccs1)NC(=O)[C@H](CC(C)C)NC(=O)[C@H](CCCNC(=N)N)NC(=O)[C@@H](N)CCCCN)C(=O)N[C@@H](CCCNC(=N)N)C(=O)N[C@@H](CCCCN)C(=O)N[C@@H](Cc1cccs1)C(N)=O [UP07] (H-KRL[2Thi]KKLLKYLRK[2Thi]-NH2),18.23 ± 2.76,30.10 ± 2.61,1,4,17.5 ± 2.99,> 40,> 50,4,2,2,–,1,1,24.86 ± 3.88
CC(C)C[C@H](NC(=O)[C@H](Cc1ccc(O)cc1)NC(=O)[C@H](CCCCN)NC(=O)[C@H](CC(C)C)NC(=O)[C@H](CC(C)C)NC(=O)[C@H](CCCCN)NC(=O)[C@H](CCCCN)NC(=O)[C@H](Cc1ccccc1)NC(=O)[C@H](CC(C)C)NC(=O)[C@H](CCCNC(=N)N)NC(=O)[C@@H](N)CCCCN)C(=O)N[C@@H](CCCNC(=N)N)C(=O)N[C@@H](CCCCN)C(=O)N[C@@H](Cc1cccs1)C(N)=O [UP08] (H-KRLFKKLLKYLRK[2Thi]-NH2),52.49 ± 2.25,86.84 ± 1.24,2,4,14.6 ± 2.96,> 40,> 50,4,2,2,–,1,2,26.85 ± 2.61
CC(C)C[C@H](NC(=O)[C@H](Cc1ccc(O)cc1)NC(=O)[C@H](CCCCN)NC(=O)[C@H](CC(C)C)NC(=O)[C@H](CC(C)C)NC(=O)[C@H](CCCCN)NC(=O)[C@H](CCCCN)NC(=O)[C@H](Cc1ccccc1)NC(=O)[C@H](CC(C)C)NC(=O)[C@H](CCCNC(=N)N)NC(=O)[C@@H](N)CCCCNC(=N)N)C(=O)N[C@@H](CCCNC(=N)N)C(=O)N[C@@H](CCCCN)C(=O)N[C@@H](Cc1cccs1)C(N)=O [UP10] (H-[hArg]RLFKKLLKYLRK[2Thi]-NH2),56.82 ± 2.62,95.02 ± 1.84,1,4,22.8 ± 4.65,> 40,> 50,4,2,2,31.6 ± 7.81,0.5,2,–
KRLFKRLFKYLRRF-NH2 [LP01],29.58 ± 0.83,37.14 ± 1.29,1,4,16.6 ± 3.79,> 40,> 50,4,2,2,33.3 ± 5.69,1,2,–
RRIFKRLFKYLRRF-NH2 [LP02],24.18 ± 2.01,45.40 ± 2.40,2,8,14.4 ± 1.44,> 40,> 50,8,4,2,19.7 ± 8.58,1,2,–
